# Measured values reported in patent publication US10596145B2, “Heterocyclic flavone derivatives, compositions, and methods related thereto” (Emory University, priority 2012, dated 2020).
# Entries after “also recorded” stand apart in the source; their conditions may differ.
# Tests used:
# Akt = assay: Downstream Akt activation in mouse brain (p-Akt immunoblotting, p-Akt 473 ELISA); assay type: in vivo; settings: 2.5 mg/kg/day oral, 3 weeks
# Experimental: PathScan Phospho-Akt1 (Ser473) Sandwich ELISA kit was purchased from Cell Signaling (Cat. #7160). 100 μl sample in sample diluent (supplied in the kit) was added to each well and incubated overnight at 4° C. After 4× wash with 200 ul wash buffer (supplied in the kit), 100 ul/well detection antibody was added and incubated for 1 hour at 37° C. After 4× wash, 100 μl of HRP-linked secondary antibody (supplied in the kit) was added and incubated for 30 minutes at 37° C. After a final wash, 100 μl of TMB substrate was added to each well and incubated for 10 minutes at 37° C. The reaction was stopped by adding 100 μl/well stop solution. Record the values of each well using microplate reader at 450 nm and 650 nm. The optical density was determined by the subtraction of the reading at 650 nm from the reading s at 450 nm.
# (§1) Male C57BL/6 mice aged of two months were administrated orally with 4′-DMA-7,8-DHF derivatives at a single dose of 1 mg/kg for 4 h. The control mice were injected with saline. The mice were sacrificed and brains were homogenated and ultracentrafuged. The supernatant (40 μg) was employed for SDS-PAGE and immunoblotting analysis with indicated antibodies, respectively. Male C57BL/6 mice aged of two months were administrated orally with compound (i) or (m) at the dose of 5 mg/kg/day each and compound o or p at the dose of 2.5 mg/kg/day each for 21 days. BrdU (100 mg/kg) was i. p. injected two hours before the TrkB agonist treated animals were sacrificed and the hippocampal section lysates were analyzed by immunoblotting with p-TrkB and total TrkB antibodies, p-AKT ELISA.
# hERG = hERG (Homo sapiens, UniProt Q12809); assay: hERG inhibition assay
# hERG, sequence (Q12809 whole entry): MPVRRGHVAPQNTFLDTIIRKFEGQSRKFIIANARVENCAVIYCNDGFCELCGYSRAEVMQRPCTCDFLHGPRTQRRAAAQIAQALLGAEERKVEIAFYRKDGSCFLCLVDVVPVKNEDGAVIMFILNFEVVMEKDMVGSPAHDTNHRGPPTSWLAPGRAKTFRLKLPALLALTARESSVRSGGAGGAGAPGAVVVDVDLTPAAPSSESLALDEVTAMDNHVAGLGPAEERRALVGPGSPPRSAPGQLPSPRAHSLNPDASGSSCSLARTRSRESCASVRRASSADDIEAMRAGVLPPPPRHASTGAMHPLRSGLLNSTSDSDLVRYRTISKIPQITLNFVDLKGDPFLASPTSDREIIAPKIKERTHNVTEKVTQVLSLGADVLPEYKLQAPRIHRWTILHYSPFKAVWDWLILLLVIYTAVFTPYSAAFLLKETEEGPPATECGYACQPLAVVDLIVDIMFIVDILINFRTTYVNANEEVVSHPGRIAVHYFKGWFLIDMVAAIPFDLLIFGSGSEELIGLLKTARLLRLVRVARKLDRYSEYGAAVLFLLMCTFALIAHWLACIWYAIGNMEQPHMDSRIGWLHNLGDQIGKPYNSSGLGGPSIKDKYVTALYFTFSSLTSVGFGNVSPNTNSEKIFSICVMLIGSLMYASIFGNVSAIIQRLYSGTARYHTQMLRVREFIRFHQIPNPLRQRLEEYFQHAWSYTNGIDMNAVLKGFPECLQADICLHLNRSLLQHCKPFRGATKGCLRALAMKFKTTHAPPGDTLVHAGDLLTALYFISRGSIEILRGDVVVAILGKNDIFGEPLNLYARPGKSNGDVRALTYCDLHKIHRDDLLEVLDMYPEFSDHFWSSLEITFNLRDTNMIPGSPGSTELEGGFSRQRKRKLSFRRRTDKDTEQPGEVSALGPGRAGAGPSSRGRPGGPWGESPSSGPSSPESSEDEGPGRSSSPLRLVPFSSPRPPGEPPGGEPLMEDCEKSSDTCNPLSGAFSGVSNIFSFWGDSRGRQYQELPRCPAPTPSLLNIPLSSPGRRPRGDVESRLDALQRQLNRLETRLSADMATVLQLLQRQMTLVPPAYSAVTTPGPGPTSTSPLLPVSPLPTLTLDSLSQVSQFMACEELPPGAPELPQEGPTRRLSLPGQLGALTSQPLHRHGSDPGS
# Experimental: (§2) At 30 μM, the inhibition patterns contained similar trends. To test the possible cardiovascular toxicity, hERG inhibition triggered by compound o was examined.
# TrkB = molecular target: T1, TrkB (Mus musculus, UniProt P15209); assay: TrkB phosphorylation in mouse brain after oral administration (immunoblotting, immunohistochemistry); assay type: in vivo
# T1 construct: from tissue; host or cells: mouse brain (hippocampus, cortex), C57BL/6
# T1 sequence (P15209 32-821): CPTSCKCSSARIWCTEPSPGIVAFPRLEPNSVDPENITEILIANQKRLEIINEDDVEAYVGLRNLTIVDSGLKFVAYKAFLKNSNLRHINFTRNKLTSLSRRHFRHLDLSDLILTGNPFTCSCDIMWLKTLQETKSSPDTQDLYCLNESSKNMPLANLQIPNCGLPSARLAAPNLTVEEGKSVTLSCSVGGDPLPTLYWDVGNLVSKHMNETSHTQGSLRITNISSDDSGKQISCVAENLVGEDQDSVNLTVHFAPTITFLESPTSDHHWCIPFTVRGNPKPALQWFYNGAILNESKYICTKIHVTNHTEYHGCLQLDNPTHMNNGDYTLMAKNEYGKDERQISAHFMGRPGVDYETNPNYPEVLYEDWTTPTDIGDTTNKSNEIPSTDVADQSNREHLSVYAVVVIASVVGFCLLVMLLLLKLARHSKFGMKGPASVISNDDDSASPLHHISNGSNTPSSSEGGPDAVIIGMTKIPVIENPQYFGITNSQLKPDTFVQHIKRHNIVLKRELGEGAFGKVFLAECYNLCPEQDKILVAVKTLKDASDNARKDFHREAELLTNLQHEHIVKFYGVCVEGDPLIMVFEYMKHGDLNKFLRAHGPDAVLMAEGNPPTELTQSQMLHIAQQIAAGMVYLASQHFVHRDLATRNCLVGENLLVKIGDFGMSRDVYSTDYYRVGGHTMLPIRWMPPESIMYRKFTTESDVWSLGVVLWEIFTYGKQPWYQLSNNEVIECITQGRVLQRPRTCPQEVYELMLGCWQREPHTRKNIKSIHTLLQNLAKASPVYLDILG
# Experimental: One mg/kg of various indicated compounds were orally administrated into C57 BL/6J mice and TrkB phosphorylation and its downstream signaling cascades including Akt and MAPK in the hippocampus of mouse brain were analyzed by immunoblotting at 4 h. […] The downstream p-Akt and p-MAPK activity coupled to the TrkB activation patterns.
# Time course assay with 4′-dimethylamino-7,8-imidazole flavone. One mg/kg of compound (i) and compound (m) were orally administrated into C57 BL/6J mice and TrkB phosphorylation and its downstream signaling cascades including Akt in mouse brain were analyzed by immunoblotting at various time points. TrkB activation by compound m peaked at 4 h, whereas the maximal TrkB activation by compound i in mouse brain occurred at 1-2 h. Arrows indicate the p-TrkB in mature glycosylated or unglycosylated forms (top panels). The downstream Akt activation pattern tightly correlated with the upstream TrkB activation.
# as §1
# Brain tissues were fixed in 4% paraformaldehyde overnight followed by paraffin embedding. Sections of 6 μm were cut. For immunohistochemical staining, brain sections were deparaffinized in xylene and rehydrated in graded alcohols. Endogenous peroxidase activity was blocked by 3% hydrogen peroxide for 5 min and all slides were boiled in 10 mM sodium citrate buffer (pH 6.0) for 10 min. Phosphorylated TrkB 816 and TrkB were detected using specific antibodies. Paraffin section were deparaffinized in xylene and rehydrated gradient ethanol solution. Samples were boiled in 10 mM sodium citrate buffer for 20 min for antigen retrieval purpose. Brain sections were incubated with anti-TrkB (BD Biosciences, San Jose, Calif.) 1:50, p-TrkB 1:300 dilution. Secondary antibody was applied using anti-rabbit-Alexa 594 (red), anti-mouse-fluorescein isothiocyanate (FITC) (green). DAPI (blue) was used for nuclear staining.
# C57BL/6J mice = assay: Forced swim test; assay type: in vivo, mouse
# Experimental: Male C57BL/6J mice (6 mice/group) were orally administrated by gavage with 5 mg/kg compound (m) or compound (i) and vehicle solvent saline for 21 days and subjected to a forced swim test (6 min, immobility recorded in the last 4 min). Data are presented as mean±SEM. (n=6, ***P<0.0001 vs vehicle, Student t-test).
# Forced swim test. Male C57BL/6J mice (8 mice/group) were orally administrated by gavage with 2.5 mg/kg compound o or compound p and vehicle solvent saline for 21 days and subjected to a forced swim test (6 min, immobility recorded in the last 4 min). […] Data are presented as mean±SEM.
# Adult male mice (2-3 months old) were randomly submitted to a forced swim test without a preswim. Test compounds were orally administrated by gavage for 21 days. The mice were allowed to adapt to the test room for 2 days. The mice were placed in a clear glass cylinder with a diameter of 16 cm, half-filled with clear water at 24° C.
# CYP1A2 = molecular target: T2, CYP1A2 (Homo sapiens, UniProt P05177); assay: CYP screen inhibition; assay type: in vitro ADME
# T2 sequence (P05177 1-516): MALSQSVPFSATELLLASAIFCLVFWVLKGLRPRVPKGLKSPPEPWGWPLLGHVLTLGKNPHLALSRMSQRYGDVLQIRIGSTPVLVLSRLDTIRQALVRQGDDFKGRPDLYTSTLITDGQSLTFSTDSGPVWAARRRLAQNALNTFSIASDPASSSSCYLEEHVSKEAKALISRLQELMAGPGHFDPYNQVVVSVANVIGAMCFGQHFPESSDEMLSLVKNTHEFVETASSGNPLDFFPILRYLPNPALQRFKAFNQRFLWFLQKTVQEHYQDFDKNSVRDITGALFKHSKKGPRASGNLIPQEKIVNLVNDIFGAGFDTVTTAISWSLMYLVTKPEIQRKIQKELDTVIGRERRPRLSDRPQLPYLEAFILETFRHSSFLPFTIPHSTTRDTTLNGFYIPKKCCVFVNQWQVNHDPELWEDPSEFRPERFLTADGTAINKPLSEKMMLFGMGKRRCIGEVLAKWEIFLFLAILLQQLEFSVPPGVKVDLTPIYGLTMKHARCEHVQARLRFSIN
# Experimental: as §2
compound,measurement,setting,value
"Cc1nc2ccc3c(=O)cc(-c4ccc(N5CCCC5)cc4)oc3c2[nH]1 [compound o, 2-methyl-8-(4-(pyrrolidin-1-yl)phenyl)chromeno[7,8-d]imidazol-6(1H)-one]",Akt activation (quantitative p-Akt ELISA),Akt,notably activated Akt
same,hERG inhibition,hERG,suboptimal; also recorded: did not possess any concentration-dependent inhibition activity of hERG
same,TrkB activation in mouse brain,"TrkB; 1 mg/kg oral, hippocampus, at 2 h",triggers TrkB activation in mouse brain
same,TrkB phosphorylation after chronic treatment (immunoblotting),"TrkB; 2.5 mg/kg/day oral, 21 days",markedly activated TrkB receptor; also recorded: evidently elevated TrkB phosphorylation
same,"TrkB phosphorylation in hippocampus (immunohistochemistry, anti-p-TrkB 816)","TrkB; 2.5 mg/kg/day oral, chronic",elevated TrkB phosphorylation in hippocampus
same,reduction of immobility in forced swim test compared to vehicle control,"C57BL/6J mice; 2.5 mg/kg oral once a day, 3 weeks",45%
same,immobility in forced swim test,"C57BL/6J mice; 2.5 mg/kg oral, 21 days",active in both FST and TST depression behavioral assays; also recorded: significantly decreased the immobility
same,inhibition at 3 µM,CYP1A2,~27.3%
